Measurements taken from patent US20240254119A1 (THIRD HARMONIC BIO, INC., priority 2022, published 2024).
pIC50: −log10 of the molar value.

biological target: T1, wtKIT (Homo sapiens, UniProt P10721); assay: HTRF biochemical assay, wtKIT (phosphorylation of a peptide substrate); details: Table 4
T1 construct: 1888289AM in the reaction mixtures
Protocol: Exemplary compounds were tested for ability to inhibit the phosphorylation of a peptide substrate by the tyrosine kinase wt KIT, PDGFRα, or CSF-1R. Assay procedures and results are described below.
Enzyme, substrate, and cofactors (ATP and Mn^2+) are combined in a well of a microtiter plate and incubated for 3 hours at 25° C. At the end of the incubation, the reaction is quenched by the addition of an EDTA-containing buffer.
The substrate used in the CSF-1R and PDGFRα assay is FAM-[…]-CONH2 (FAM is carboxyfluorescein). Peptide should be >95% purity. The substrate for the KIT assay is FAM-[…]-NH2.
• 1. To a well of a 384-wellplate add 5 μL of 2× enzyme buffer (or control). • 2. Add 100 nL of 100× compound. Enzyme and compound may be pre-incubated at this time if desired. • 3. Add 5 μL of 2× substrate buffer. • 4. Incubate plate at 25° C. for 3 hours. • 5. Add 10 uL of anti-phosphotyrosine antibody buffer. • 6. Read plate in BioTek Synergy Reader. Reaction Conditions for wtKIT Assay
• 100 mM HEPES, pH 7.5 0.1% BSA • 0.01% Triton x-100 • 1 mM DTT • 10 mM MnCl2 • 10 μM Sodium Orthovanadate • 10 μM Beta-Glycerophosphate • 400 μM ATP • 1% DMSO (from compound) • 1 μM FAM-[…]-CONH2, 5.0 nM wtKIT Enzyme (1888289AM)* • *Specific activity may vary from lot to lot. Enzyme concentration may need to be adjusted to yield 10-20% conversion of substrate to product.

T1 sequence (P10721 26-976): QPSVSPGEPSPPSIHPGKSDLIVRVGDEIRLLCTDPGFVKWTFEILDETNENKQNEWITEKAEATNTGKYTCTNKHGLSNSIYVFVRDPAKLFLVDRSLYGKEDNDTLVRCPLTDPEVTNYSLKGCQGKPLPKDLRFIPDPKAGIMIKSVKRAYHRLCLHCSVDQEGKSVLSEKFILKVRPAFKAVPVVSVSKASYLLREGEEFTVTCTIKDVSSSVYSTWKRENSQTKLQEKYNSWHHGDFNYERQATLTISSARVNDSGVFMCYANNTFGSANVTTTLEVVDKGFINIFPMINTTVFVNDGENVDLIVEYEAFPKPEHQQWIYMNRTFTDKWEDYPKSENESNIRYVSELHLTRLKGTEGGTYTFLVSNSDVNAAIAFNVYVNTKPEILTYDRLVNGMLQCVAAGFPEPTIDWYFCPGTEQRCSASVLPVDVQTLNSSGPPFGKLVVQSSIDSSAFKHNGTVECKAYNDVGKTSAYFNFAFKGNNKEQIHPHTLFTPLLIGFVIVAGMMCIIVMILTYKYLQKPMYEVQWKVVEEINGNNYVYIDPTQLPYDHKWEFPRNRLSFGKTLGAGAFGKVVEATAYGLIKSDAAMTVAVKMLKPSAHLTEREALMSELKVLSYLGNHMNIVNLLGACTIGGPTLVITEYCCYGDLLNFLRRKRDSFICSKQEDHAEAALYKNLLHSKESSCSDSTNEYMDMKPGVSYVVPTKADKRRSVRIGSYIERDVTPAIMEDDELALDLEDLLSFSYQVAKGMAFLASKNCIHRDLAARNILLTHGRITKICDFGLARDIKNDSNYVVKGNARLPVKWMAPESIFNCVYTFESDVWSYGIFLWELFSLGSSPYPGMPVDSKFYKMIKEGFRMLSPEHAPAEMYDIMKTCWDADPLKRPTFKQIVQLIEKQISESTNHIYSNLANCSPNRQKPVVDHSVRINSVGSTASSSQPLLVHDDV

Row | SMILES | pIC50
1 | CCOc1ccn2c(C(=O)Nc3cc(-c4noc(C[C@H](O)C(F)F)n4)ccc3C)cnc2c1 [Compound I-566, (S)—N-(5-(5-(3,3-difluoro-2-hydroxypropyl)-1,2,4-oxadiazol-3-yl)-2-methylphenyl)-7-ethoxyimidazo[1,2-a]pyridine-3-carboxamide] | ≥ 7.30
2 | Cc1nc(-c2ccc(C)c(NC(=O)c3cnc4ccc(-c5ccn(C)n5)cn34)c2)no1 [Compound I-532, 6-(1-methyl-1H-pyrazol-3-yl)-N-(2-methyl-5-(5-methyl-1,2,4-oxadiazol-3-yl)phenyl)imidazo[1,2-a]pyridine-3-carboxamide] | ≥ 7.30
3 | Cc1ccn2c(C(=O)Nc3cc(-c4noc(-c5cccnn5)n4)ccc3C)cnc2c1 [Compound I-550] | 6.30 to 7.30
4 | COc1ccn2c(C(=O)Nc3cc(-c4noc(CC5COC5)n4)ccc3C)cnc2c1 [Compound I-633, 7-Methoxy-N-[2-methyl-5-[5-(oxetan-3-ylmethyl)-1,2,4-oxadiazol-3-yl]phenyl]imidazo[1,2-a]pyridine-3-carboxamide] | ≥ 7.30
5 | CNCCOCc1ccn2c(C(=O)Nc3cc(-c4noc(C[C@H](O)C(F)F)n4)ccc3C)cnc2c1 [Compound I-593] | 6.30 to 7.30
6 | Cc1ccc(-c2noc(CC(O)C(F)F)n2)cc1NC(=O)c1cnc2cc(COCCO)ccn12 (single isomer, unassigned) [Compound I-511] | 6.30 to 7.30
7 | Cc1ccc(-c2noc(C3CC(O)C3)n2)cc1NC(=O)c1cnc2cc(-c3ccn(C)n3)ccn12 (stereo not drawn) [Compound I-727] | ≥ 7.30
8 | Cc1ccn2c(C(=O)Nc3cc(-c4noc(CC5CCCCO5)n4)ccc3C)cnc2c1 (stereo not drawn) [Compound I-583, 7-methyl-N-(2-methyl-5-(5-((tetrahydro-2H-pyran-2-yl)methyl)-1,2,4-oxadiazol-3-yl)phenyl)imidazo[1,2-a]pyridine-3-carboxamide] | ≥ 7.30
9 | Cc1ccc(-c2ncon2)cc1NC(=O)c1cnc2cc(COCC(C)(C)O)ccn12 [Compound I-641, 7-((2-hydroxy-2-methylpropoxy)methyl)-N-(2-methyl-5-(1,2,4-oxadiazol-3-yl)phenyl)imidazo[1,2-a]pyridine-3-carboxamide] | 5.30 to 6.30
10 | CNC(C)COCc1ccn2c(C(=O)Nc3cc(-c4noc(CC(O)C(F)F)n4)ccc3C)cnc2c1 (stereo not drawn) [Compound I-599] | 6.30 to 7.30
11 | Cc1ccc(-c2noc([C@H]3C[C@@H]3F)n2)cc1NC(=O)c1cnc2cc(C(C)(C)O)ccn12 [Compound I-456] | ≥ 7.30
12 | Cc1ccc(-c2noc(C[C@H](O)C(F)F)n2)cc1NC(=O)c1cnc2ccc(-c3cscn3)cn12 [Compound I-560, (S)—N-(5-(5-(3,3-difluoro-2-hydroxypropyl)-1,2,4-oxadiazol-3-yl)-2-methylphenyl)-6-(thiazol-4-yl)imidazo[1,2-a]pyridine-3-carboxamide] | ≥ 7.30
13 | Cc1nc(-c2ccc(C)c(NC(=O)c3cnn4cc(-c5cscn5)ccc34)c2)no1 [Compound I-559, N-(2-methyl-5-(5-methyl-1,2,4-oxadiazol-3-yl)phenyl)-6-(thiazol-4-yl)pyrazolo[1,5-a]pyridine-3-carboxamide] | ≥ 7.30
14 | Cc1ccc(-c2noc(CC(O)C(F)F)n2)cc1NC(=O)c1cnc2cc(COCC(C)N(C)C(=O)OC(C)(C)C)ccn12 (stereo not drawn) [Compound I-600] | 6.30 to 7.30
15 | Cc1nc(-c2ccc(C)c(NC(=O)c3cnn4cc(-c5ccn(C)n5)ccc34)c2)no1 [Compound I-535, 6-(1-methyl-1H-pyrazol-3-yl)-N-(2-methyl-5-(5-methyl-1,2,4-oxadiazol-3-yl)phenyl)pyrazolo[1,5-a]pyridine-3-carboxamide] | ≥ 7.30
16 | Cc1ccc(-c2noc(C(C)O)n2)cc1NC(=O)c1cnc2cc(F)ccn12 (stereo not drawn) [Compound I-741] | 5.30 to 6.30
17 | Cc1ccc(-c2noc(CC(O)C(C)(C)C)n2)cc1NC(=O)c1cnc2ccccn12 (stereo not drawn) [Compound I-519] | ≥ 7.30
18 | Cc1ccc(-c2noc(C3CC(N)C3)n2)cc1NC(=O)c1cnc2cc(Cl)ccn12 (stereo not drawn) [Compound I-746] | 5.30 to 6.30
19 | Cc1ccc(-c2noc(C[C@H](O)C(F)F)n2)cc1NC(=O)c1cnc2cc(OCCCC(C)(C)O)ccn12 [Compound I-580, (S)—N-(5-(5-(3,3-difluoro-2-hydroxypropyl)-1,2,4-oxadiazol-3-yl)-2-methylphenyl)-7-((4-hydroxy-4-methylpentyl)oxy)imidazo[1,2-a]pyridine-3-carboxamide] | ≥ 7.30
20 | Cc1nc(-c2ccc(C)c(NC(=O)c3cnc4cc(C5COC5)ccn34)c2)no1 [Compound I-687] | 6.30 to 7.30
21 | CCc1nc(-c2ccc(C)c(NC(=O)c3cnc4cc(-c5cscn5)ccn34)c2)no1 [Compound I-720] | ≥ 7.30

Row | SMILES | pIC50
22 | Cc1ccc(-c2noc(C[C@H](O)C(F)F)n2)cc1NC(=O)c1cnc2cc(COCc3c[nH]cn3)ccn12 [Compound I-585, (S)-7-(((1H-imidazol-4-yl)methoxy)methyl)-N-(5-(5-(3,3-difluoro-2-hydroxypropyl)-1,2,4-oxadiazol-3-yl)-2-methylphenyl)imidazo[1,2-a]pyridine-3-carboxamide] | ≥ 7.30
23 | Cc1ccc(-c2ncon2)cc1NC(=O)c1cnc2cc(N(C)C)ccn12 [Compound I-718] | ≥ 7.30
24 | COc1ccn2c(C(=O)Nc3cc(-c4noc(-c5cccnc5)n4)ccc3C)cnc2c1 [Compound I-745] | ≥ 7.30
25 | Cc1ccc(-c2noc(CCC(C)(C)O)n2)cc1NC(=O)c1cnn2ccccc12 [Compound I-563] | 6.30 to 7.30
26 | Cc1ccc(-c2noc([C@H]3C[C@@H]3F)n2)cc1NC(=O)c1cnc2cc(C(C)(C)CO)ccn12 [Compound I-464] | 6.30 to 7.30
27 | COCc1ccn2c(C(=O)Nc3cc(-c4ncon4)ccc3C)cnc2c1 [Compound I-677] | 6.30 to 7.30
28 | CCc1nc(-c2ccc(C)c(NC(=O)c3cnc4cc(OC)ccn34)c2)no1 [Compound I-737] | ≥ 7.30
29 | COc1ccn2c(C(=O)Nc3cc(-c4noc(Cc5ccccc5)n4)ccc3C)cnc2c1 [Compound I-552, N-(5-(5-benzyl-1,2,4-oxadiazol-3-yl)-2-methylphenyl)-7-methoxyimidazo[1,2-a]pyridine-3-carboxamide] | ≥ 7.30
30 | Cc1ccc(-c2noc([C@H](O)CO)n2)cc1NC(=O)c1cnc2cc(Cl)ccn12 [Compound I-604] | 5.30 to 6.30
31 | Cc1ccc(-c2noc(N3CC(F)(F)C3)n2)cc1NC(=O)c1cnc2cc(F)c(Cl)cn12 [Compound I-610] | 6.30 to 7.30
32 | Cc1ccn2c(C(=O)Nc3cc(-c4noc(CCC(C)(O)C(F)(F)F)n4)ccc3C)cnc2c1 (stereo not drawn) [Compound I-752, 7-methyl-N-(2-methyl-5-(5-(4,4,4-trifluoro-3-hydroxy-3-methylbutyl)-1,2,4-oxadiazol-3-yl)phenyl)imidazo[1,2-a]pyridine-3-carboxamide] | ≥ 7.30
33 | Cc1ccc(-c2noc([C@H]3C[C@@H]3F)n2)cc1NC(=O)c1cnc2cc(CCC(C)(C)CO)ccn12 [Compound I-474, N-[5-[5-[(1R,2S)-2-fluorocyclopropyl]-1,2,4-oxadiazol-3-yl]-2-methyl-phenyl]-7-(4-hydroxy-3,3-dimethyl-butyl)imidazo[1,2-a]pyridine-3-carboxamide] | ≥ 7.30
34 | Cc1ccc(-c2noc([C@H]3C[C@@H]3F)n2)cc1NC(=O)c1cnc2cc(CCOCCO)ccn12 [Compound I-475, N-[5-[5-[(1R,2S)-2-fluorocyclopropyl]-1,2,4-oxadiazol-3-yl]-2-methyl-phenyl]-7-[2-(2-hydroxyethoxy)ethyl]imidazo[1,2-a]pyridine-3-carboxamide] | ≥ 7.30
35 | Cc1ccc(-c2ncon2)cc1NC(=O)c1cnc2cc(COCCO)ccn12 [Compound I-700] | 6.30 to 7.30
36 | Cc1ccc(-c2noc(C[C@H](O)C(F)F)n2)cc1NC(=O)c1cnc2cc(COCc3ccn[nH]3)ccn12 [Compound I-586, (S)-7-(((1H-pyrazol-5-yl)methoxy)methyl)-N-(5-(5-(3,3-difluoro-2-hydroxypropyl)-1,2,4-oxadiazol-3-yl)-2-methylphenyl)imidazo[1,2-a]pyridine-3-carboxamide] | ≥ 7.30
37 | COCC(O)Cc1nc(-c2ccc(C)c(NC(=O)c3cnc4ccccn34)c2)no1 (stereo not drawn) [Compound I-528] | 6.30 to 7.30
38 | Cc1ccn2c(C(=O)Nc3cc(-c4noc(CC(=O)CF)n4)ccc3C)cnc2c1 [Compound I-589] | 5.30 to 6.30
39 | CCc1nc(-c2ccc(C)c(NC(=O)c3cnc4cc(COCCO)ccn34)c2)no1 [Compound I-754] | ≥ 7.30
40 | Cc1nc(-c2ccc(C)c(NC(=O)c3cnc4cc(-c5ccn(C)n5)ccn34)c2)no1 [Compound I-530, 7-(1-methyl-1H-pyrazol-3-yl)-N-(2-methyl-5-(5-methyl-1,2,4-oxadiazol-3-yl)phenyl)imidazo[1,2-a]pyridine-3-carboxamide] | ≥ 7.30
41 | Cc1ccc(-c2noc([C@H]3C[C@@H]3F)n2)cc1NC(=O)c1cnc2c(F)c(COCCO)ccn12 [Compound I-472] | 6.30 to 7.30
42 | Cc1ccc(-c2noc([C@H]3C[C@@H]3F)n2)cc1NC(=O)c1cnc2cc(F)c(Cl)cn12 [Compound I-605] | 6.30 to 7.30
